Measured values reported in patent publication US7300950B2, “Pyrazole derivatives, their preparation and their use in pharmaceuticals” (Aventis Pharma Deutschland GmbH, priority 1997, dated 2007).

How the values were obtained:
[1] = molecular target: T1, soluble guanylate cyclase (sGC) isolated from bovine lung (Bos taurus, UniProt P16068+P19687); experiment: Activation of the soluble guanylate cyclase (cGMP enzyme immunoassay); assay type: biochemical; conditions: n-fold stimulation of basal enzyme activity = [cGMP]test substance/[cGMP]control
T1 construct: The sGC which was employed had been isolated from bovine lung; from tissue; host or cells: bovine lung
T1 sequence (P16068 1-619): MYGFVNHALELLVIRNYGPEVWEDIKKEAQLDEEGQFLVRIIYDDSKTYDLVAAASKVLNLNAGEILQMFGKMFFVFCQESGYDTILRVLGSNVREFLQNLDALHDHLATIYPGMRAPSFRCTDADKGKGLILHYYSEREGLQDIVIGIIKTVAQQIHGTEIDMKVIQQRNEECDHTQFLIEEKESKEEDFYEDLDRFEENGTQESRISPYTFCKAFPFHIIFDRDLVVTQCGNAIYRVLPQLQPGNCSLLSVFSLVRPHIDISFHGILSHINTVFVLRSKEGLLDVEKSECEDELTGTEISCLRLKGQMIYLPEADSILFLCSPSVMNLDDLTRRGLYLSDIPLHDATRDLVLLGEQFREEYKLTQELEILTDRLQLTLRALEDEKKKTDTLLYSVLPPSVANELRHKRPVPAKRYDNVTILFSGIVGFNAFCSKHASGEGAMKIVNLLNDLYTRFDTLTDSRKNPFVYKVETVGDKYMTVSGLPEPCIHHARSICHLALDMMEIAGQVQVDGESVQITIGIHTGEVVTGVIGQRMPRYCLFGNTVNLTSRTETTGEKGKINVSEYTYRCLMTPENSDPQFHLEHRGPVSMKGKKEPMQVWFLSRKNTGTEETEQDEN
T1 sequence (P19687 1-691): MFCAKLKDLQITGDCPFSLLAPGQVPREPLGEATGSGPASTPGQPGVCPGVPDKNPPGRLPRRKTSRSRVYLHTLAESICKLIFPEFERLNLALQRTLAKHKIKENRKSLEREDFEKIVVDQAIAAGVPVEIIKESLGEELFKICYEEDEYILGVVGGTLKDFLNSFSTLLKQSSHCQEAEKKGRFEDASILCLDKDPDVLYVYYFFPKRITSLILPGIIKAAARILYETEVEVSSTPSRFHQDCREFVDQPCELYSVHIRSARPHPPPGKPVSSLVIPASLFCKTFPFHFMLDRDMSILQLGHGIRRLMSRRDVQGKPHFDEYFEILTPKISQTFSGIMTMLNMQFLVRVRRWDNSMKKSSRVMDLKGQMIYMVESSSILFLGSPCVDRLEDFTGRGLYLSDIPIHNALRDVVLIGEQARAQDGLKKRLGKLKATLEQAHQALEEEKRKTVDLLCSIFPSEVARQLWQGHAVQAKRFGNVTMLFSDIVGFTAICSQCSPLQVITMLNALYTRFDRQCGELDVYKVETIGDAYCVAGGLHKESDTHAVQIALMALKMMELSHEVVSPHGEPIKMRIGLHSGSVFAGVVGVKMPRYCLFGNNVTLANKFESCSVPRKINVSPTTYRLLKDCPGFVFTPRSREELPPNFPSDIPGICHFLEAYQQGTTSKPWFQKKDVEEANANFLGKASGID
Procedure: 1. Activation of the Soluble Guanylate Cyclase
The activation of the sGC, which catalyzes the conversion of GTP into cyclic guanosine monophosphate cGMP and pyrophosphate, by the compounds according to the invention was quantified with the aid of an enzyme immunoassay “EIA” from Amersham. For this purpose the substances to be tested were initially incubated with sGC in microtiter plates, and the amount of the cGMP formed was then determined.
The test solutions (100 μl per well) contained 50 mM triethanolamine “TEA” buffer (pH 7.5), 3 mM MgCl2, 3 mM reduced glutathione “GSH,” 0.1 mM GTP, 1 mM 3-isobutyl-1-methylxanthine “IBMX,” suitably diluted enzyme solution and the substance to be tested or, in the control experiments, the solvent. […] The DMSO concentration in the test solution was 5% (v/v). The reaction was initiated by addition of the sGC. The reaction mixture was incubated at 37° C. for 15 to 20 minutes and then stopped by ice-cooling and addition of the stop reagent (50 mM EDTA, pH 8.0). An aliquot of 50 μl was taken and used for determining the cGMP content using the acetylation protocol of the Amersham cGMP-EIA kit. The absorption of the samples was measured at 450 nm (reference wavelength 620 nm) in a microtiter plate reader. The cGMP concentration was determined using a standard curve which was obtained under the same test conditions. […] This is calculated using the formula: n-fold stimulation=[cGMP]test substance/[cGMP]control.

rat aorta rings = experiment: Relaxation of rat aorta (phenylephrine-precontracted aorta rings, organ bath); design: species or system rat (Wistar-Kyoto); conditions: concentration by which phenylephrine (1 μM) contraction is inhibited by 50% (50% relaxation)
Source text: 2. Relaxation of Rat Aorta
For this test, normotensive male Wistar-Kyoto rats were sacrificed by a blow to the neck. The abdominal cavity and the thorax were opened by a medium sternotomy. The descending aorta was subsequently removed, freed of connective tissue and divided into 8 rings of a length of approximately 4 mm. The tip of a pair of tweezers was introduced into the lumen of 4 of the 8 rings. The endothelium was removed by carefully rolling the rings over the tip of the pair of tweezers. All 8 aorta rings (4 with endothelium and 4 without endothelium) were subsequently suspended in an organ bath (Schuler-Organbad; Hugo Sachs Elektronik) at a constant temperature of 37° C. for the isometric determination of the contractile tone. For 30 minutes, the rings were calibrated at a resting tension of 1 g in carbonated (95% O2; 5% CO2) Krebs-Henseleit solution (composition: Na^+ 144.0 mM; K^+ 5.9 mM; Cl^− 126.9 mM; Ca^2+ 1.6 mM; Mg^2+ 1.2 mM; H2PO4^− 1.2 mM; SO4^2− 1.2 mM; HCO3^− 25.0 mM; D-glucose 11.1 mM) of pH 7.4. […] After a 30-minute washing period, the rings were then again precontracted by addition of phenylephrine (1 μM), and the relaxing action of the test substances of the formula I was determined by administration of cumulative doses of the latter. The data were evaluated by standard methods. […]

| Structure (SMILES) | melting point | further results |
| --- | --- | --- |
| O=C(O)c1ccc(-c2nn(-c3cc(C(F)(F)F)cc(C(F)(F)F)c3)c3ccccc23)o1 [Example 4, 3-(5-Carboxy-2-furyl)-1-(3,5-bis(trifluoromethyl)phenyl)indazole] | 256 to 257 °C | – |
| CCOC(=O)c1ccc(-c2nn(-c3cc(C(F)(F)F)cc(C(F)(F)F)c3)c3ccccc23)o1 [Example 5, 3-(5-Ethoxycarbonyl-2-furyl)-1-(3,5-bis(trifluoromethyl)phenyl)indazole] | 128 to 129 °C | – |
| OCc1ccc(-c2nn(-c3cc(C(F)(F)F)cc(C(F)(F)F)c3)c3ccccc23)o1 [Example 6, 3-(5-Hydroxymethyl-2-furyl)-1-(3,5-bis(trifluoromethyl)phenyl)indazole] | 136 to 138 °C | n-fold stimulation ([1]; concentration 10 μM): 3.3-fold |
| O=C(OCCO)c1ccc(-c2nn(Cc3ccccc3)c3ccccc23)o1 [Example 7, 1-Benzyl-3-(5-((2-hydroxyethoxy)carbonyl)-2-furyl)indazole] | – | n-fold stimulation ([1]; concentration 100 μM): 5.5-fold |
| O=C(Nc1ccc(Cl)cc1)c1ccc(-c2nn(Cc3ccccc3)c3ccccc23)o1 [Example 22, 1-Benzyl-3-(5-(N-(4-chlorophenyl)carbamoyl)-2-furyl)indazole] | 202 to 205 °C | – |
| O=C(Nc1ccc([N+](=O)[O-])cc1)c1ccc(-c2nn(Cc3ccccc3)c3ccccc23)o1 [Example 23, 1-Benzyl-3-(5-(N-(4-nitrophenyl)carbamoyl)-2-furyl)indazole] | 204 to 208 °C | – |
| O=C(Nc1nccs1)c1ccc(-c2nn(Cc3ccccc3)c3ccccc23)o1 [Example 25, 1-Benzyl-3-(5-(N-(2-thiazolyl)carbamoyl)-2-furyl)indazole] | 167 to 168 °C | n-fold stimulation ([1]; concentration 10 μM): 2.8-fold |
| COc1ccc(NC(=O)c2ccc(-c3nn(Cc4ccccc4)c4ccccc34)o2)cc1 [Example 28, 1-Benzyl-3-(5-(N-(4-methoxyphenyl)carbamoyl)-2-furyl)indazole] | 175 °C | – |
| CC(C)NC(=O)c1ccc(-c2nn(Cc3ccccc3)c3ccccc23)o1 [Example 31, 1-Benzyl-3-(5-(N-isopropylcarbamoyl)-2-furyl)indazole] | 156 °C | – |
| CCCNC(=O)c1ccc(-c2nn(Cc3ccccc3)c3ccccc23)o1 [Example 32, 1-Benzyl-3-(5-(N-(n-propyl)carbamoyl)-2-furyl)indazole] | 152 °C | – |
| O=C(NC1CCCCC1)c1ccc(-c2nn(Cc3ccccc3)c3ccccc23)o1 [Example 33, 1-Benzyl-3-(5-(N-cyclohexylcarbamoyl)-2-furyl)indazole] | 165 °C | – |
| CN(C)CCNC(=O)c1ccc(-c2nn(Cc3ccccc3)c3ccccc23)o1 [Example 35, 1-Benzyl-3-(5-(N-(2-dimethylaminoethyl)carbamoyl)-2-furyl)indazole] | 130 °C | – |
| CC(C)N(CCNC(=O)c1ccc(-c2nn(Cc3ccccc3)c3ccccc23)o1)C(C)C [Example 36, 1-Benzyl-3-(5-(N-(2-diisopropylaminoethyl)carbamoyl)-2-furyl)indazole] | 119 to 127 °C | – |
| NC(=O)CNC(=O)c1ccc(-c2nn(Cc3ccccc3)c3ccccc23)o1 [Example 37, 1-Benzyl-3-(5-(N-(carbamoylmethyl)carbamoyl)-2-furyl)indazole] | 219 to 222 °C | – |
| CNC(=O)c1ccc(-c2nn(Cc3ccccc3)c3ccccc23)o1 [Example 40, 1-Benzyl-3-(5-(N-methylcarbamoyl)-2-furyl)indazole] | – | IC50 (rat aorta rings; Ring with endothelium): 2.4 µM; IC50 (rat aorta rings; Ring without endothelium): 0.2 µM; n-fold stimulation ([1]; concentration 100 μM): 2.4-fold |

Second part, led by results:

| melting point | Structure (SMILES) | further results |
| --- | --- | --- |
| 138 to 143 °C | O=C(Nc1ccccc1)c1ccc(-c2nn(Cc3ccccc3)c3ccccc23)o1 [Example 21, 1-Benzyl-3-(5-(N-phenylcarbamoyl)-2-furyl)indazole] | n-fold stimulation ([1]; concentration 100 μM): 3-fold |
| 167 °C | O=C(Nc1ccc2ccccc2c1)c1ccc(-c2nn(Cc3ccccc3)c3ccccc23)o1 [Example 24, 1-Benzyl-3-(5-(N-(2-naphthyl)carbamoyl)-2-furyl)indazole] | – |
| 140 to 143 °C | O=C(NOCc1ccccc1)c1ccc(-c2nn(Cc3ccccc3)c3ccccc23)o1 [Example 26, 1-Benzyl-3-(5-(N-(benzyloxy)carbamoyl)-2-furyl)indazole] | – |
| 190 °C | CN(C(=O)c1ccc(-c2nn(Cc3ccccc3)c3ccccc23)o1)c1ccccc1 [Example 27, 1-Benzyl-3-(5-(N-methyl-N-phenylcarbamoyl)-2-furyl)indazole] | – |
| 196 to 197 °C | O=C(Nc1ccccc1O)c1ccc(-c2nn(Cc3ccccc3)c3ccccc23)o1 [Example 29, 1-Benzyl-3-(5-(N-(2-hydroxyphenyl)carbamoyl)-2-furyl)indazole] | – |
| 113 to 124 °C | O=C(NCc1ccccc1)c1ccc(-c2nn(Cc3ccccc3)c3ccccc23)o1 [Example 34, 1-Benzyl-3-(5-(N-benzylcarbamoyl)-2-furyl)indazole] | – |
| 160 °C | O=C(NCc1ccccn1)c1ccc(-c2nn(Cc3ccccc3)c3ccccc23)o1 [Example 38, 1-Benzyl-3-(5-(N-(2-pyridylmethyl)carbamoyl)-2-furyl)indazole] | – |
| 138 to 139 °C | OC(c1ccccc1)c1ccc(-c2nn(Cc3ccccc3)c3ccccc23)o1 (stereo not shown) [Example 43, 1-Benzyl-3-(5-(1-hydroxy-1-phenylmethyl)-2-furyl)indazole] | – |
